According to ChEMBL document CHEMBL4699437, “New insights into ethionamide metabolism: influence of oxidized methionine on its degradation path” (RSC Med Chem, 2020):

Assay: Acid dissociation constant, pKa of the compound

## CCc1cc(C(N)=S)ccn1 [ETHIONAMIDE]
  pKa: 11.9
